Structures are written as SMILES. Some results are limits rather than exact numbers.

Drawing on ChEMBL document CHEMBL4476874, “Compounds for the modulation of myc activity” (2018), this text covers IC50 for 63 molecules.

Test [1] concerns the target Myc proto-oncogene protein (Homo sapiens, UniProt P01106). Nature of the test: Inhibition of human c-Myc assessed as reduction in c-Myc/Max/Ebox DNA complex formation using pre-formed complex of c-Myc and biotinylated DNA containing single Ebox-sequence followed by compound addition and further addition of his6-tagged c-Max and incubated for 2 hrs by AlphaScreen assay. (In general: Bead proximity is the source of the signal in Alpha formats.)

Test [2] has as its system NCI-H2171. Nature of the test: Antiproliferative activity against human NCI-H2171 cells after 72 hrs by ATPlite assay. It counts as functional, cell-based. The conditions noted are these: NCI-H2171, 72 h. (In general: In ATP-based viability assays light output follows the ATP content of the culture.)

Chain of Myc proto-oncogene protein (P01106 whole entry): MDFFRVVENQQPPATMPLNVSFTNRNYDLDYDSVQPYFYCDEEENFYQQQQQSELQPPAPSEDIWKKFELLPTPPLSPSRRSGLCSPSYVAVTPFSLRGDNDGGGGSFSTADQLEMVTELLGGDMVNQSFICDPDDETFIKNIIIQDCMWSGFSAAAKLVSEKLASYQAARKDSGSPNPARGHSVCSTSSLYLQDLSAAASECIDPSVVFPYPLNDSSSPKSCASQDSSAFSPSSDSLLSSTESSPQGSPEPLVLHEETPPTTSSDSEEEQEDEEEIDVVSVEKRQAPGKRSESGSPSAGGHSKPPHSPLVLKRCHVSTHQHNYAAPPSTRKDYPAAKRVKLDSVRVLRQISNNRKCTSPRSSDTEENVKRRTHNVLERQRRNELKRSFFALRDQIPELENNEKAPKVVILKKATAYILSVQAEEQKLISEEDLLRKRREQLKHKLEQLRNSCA

Take `CNS(=O)(=O)c1cccc(-c2ccc3nc(-c4c(NC(=O)CCNCCOC)sc5c4CCNC5)sc3c2)c1`: the IC50 in test [1] is 300 to 1000 nM; in test [2], less than 300 nM.
As for `COCCNCCC(=O)Nc1sc2c(c1-c1nc3ccc(-c4ccnc(OC)c4)cc3s1)CCNC2`, the IC50 in test [1] was 300 to 1000 nM; in test [2] it was less than 300 nM.
On the same counts, the results for `COCCNCCC(=O)Nc1sc2c(c1-c1nc3cc(-c4ccc(OC)nc4)ccc3s1)CCNC2` are 1000 to 10000 nM and less than 300 nM.
Regarding `COCCNCCC(=O)Nc1sc2c(c1-c1nc3cc(-c4ccc(F)nc4F)ccc3s1)CCNC2`, the IC50 is 300 to 1000 nM in test [1] and less than 300 nM in test [2].
The matching figures for `COCCNCCC(=O)Nc1sc2c(c1-c1nc3c(NS(C)(=O)=O)cccc3s1)CCNC2`: 1000 to 10000 nM and less than 300 nM.
Turning to `COCCNCCC(=O)Nc1sc2c(c1-c1nc3ccc(-c4ccc(C)nc4)cc3s1)CCNC2`, the IC50 in test [1] is 300 to 1000 nM; in test [2], less than 300 nM.
The matching figures for `Cc1noc(C)c1-c1ccc2sc(-c3c(NC(=O)CCNC(C)C)sc4c3CCNC4)nc2c1`: 1000 to 10000 nM and 300 to 1000 nM.
On the same counts, the results for `CC(C)NCCC(=O)Nc1sc2c(c1-c1nc3cc(C4=CCN(S(=O)(=O)N(C)C)CC4)ccc3s1)CCNC2` are 300 to 1000 nM and less than 300 nM.
On the same counts, the results for `COCCNCCC(=O)Nc1sc2c(c1-c1nc3cc(-c4ccc(F)nc4)ccc3s1)CCNC2` are less than 300 nM and 300 to 1000 nM.
Consider `COCCNCCC(=O)Nc1sc2c(c1-c1nc3c(Nc4ccccc4)cccc3s1)CCNC2`, for which the IC50 is greater than 10000 nM in test [1] and 300 to 1000 nM in test [2].
For the molecule `CC(C)NCCC(=O)Nc1sc2c(c1-c1nc3cc(-c4cn[nH]c4)ccc3s1)CCNC2`, the IC50 in test [1] and in test [2] was less than 300 nM throughout.
For the molecule `COCCNCCC(=O)Nc1sc2c(c1-c1nc3cc(-c4ccnc(OC)c4)ccc3s1)CCNC2`, the IC50 in test [1] was 300 to 1000 nM; in test [2], less than 300 nM.
On the same counts, the results for `CC(C)NCCC(=O)Nc1sc2c(c1-c1nc3cc(-c4cccnc4)ccc3s1)CCNC2` are less than 300 nM and less than 300 nM.
Take `COCCNCCC(=O)Nc1sc2c(c1-c1nc3cc(-c4cnc(N5CCOCC5)nc4)ccc3s1)CCNC2`: the IC50 in test [1] is 300 to 1000 nM; in test [2], less than 300 nM.
`COCCNCCC(=O)Nc1sc2c(c1-c1nc3ccc(-c4ccnn4C)cc3s1)CCNC2`: the results for the IC50 in test [1] and in test [2] were 1000 to 10000 nM and less than 300 nM, respectively.
The matching figures for `CC(=O)Nc1sc2c(c1-c1nc3ccc(-c4cnn(C)c4)cc3s1)CCNC2`: 300 to 1000 nM and 300 to 1000 nM.
The matching figures for `CC(C)NCCC(=O)Nc1sc2c(c1-c1nc3cc(N4CCS(=O)(=O)CC4)ccc3s1)CCNC2`: 300 to 1000 nM and less than 300 nM.
On the same counts, the results for `COCCNCCC(=O)Nc1sc2c(c1-c1nc3ccc(-c4cccc(S(N)(=O)=O)c4)cc3s1)CCNC2` are 300 to 1000 nM and less than 300 nM.
As for `CC(C)NCCC(=O)Nc1sc2c(c1-c1nc3cc(S(C)(=O)=O)ccc3s1)CCNC2`, the values for the IC50 in test [1] and in test [2] were less than 300 nM and greater than 10000 nM, respectively.
On to `CC(=O)Nc1cccc2sc(-c3c(NC(=O)CCNC(C)C)sc4c3CCNC4)nc12`, for which the IC50 in test [1] was 300 to 1000 nM; in test [2], less than 300 nM.
On to `CSc1ccc2sc(-c3c(NC(=O)CCNC(C)C)sc4c3CCNC4)nc2c1`, for which the IC50 in test [1] is 300 to 1000 nM; in test [2], less than 300 nM.
`COCCNCCC(=O)Nc1sc2c(c1-c1nc3cc(-c4ccc5ncnn5c4)ccc3s1)CCNC2`: the IC50 in test [1] and in test [2] was less than 300 nM in each case.
Consider `CCOc1ccc(-c2ccc3sc(-c4c(NC(=O)CCNCCOC)sc5c4CCNC5)nc3c2)cn1`, for which the 50% inhibitory concentration (IC50) was 300 to 1000 nM in test [1] and less than 300 nM in test [2].
Regarding `COCCNCCC(=O)Nc1sc2c(c1-c1nc3cc(-c4c(C)nn(C)c4C)ccc3s1)CCNC2`, the IC50 was 1000 to 10000 nM in test [1] and less than 300 nM in test [2].
With `CCN(CC)CCC(=O)Nc1sc2c(c1-c1nc3ccccc3s1)CCNC2`, the 50% inhibitory concentration (IC50) in test [1] was 300 to 1000 nM; in test [2], less than 300 nM.
Take `CC(C)NCCC(=O)Nc1sc2c(c1-c1nc3cc(Sc4ccccn4)ccc3s1)CCNC2`: the values for the IC50 in test [1] and in test [2] were 1000 to 10000 nM and less than 300 nM, respectively.
On the same counts, the results for `COCCNCCC(=O)Nc1sc2c(c1-c1nc3ccc(-c4cncnc4)cc3s1)CCNC2` are 300 to 1000 nM and less than 300 nM.
As to `COCCNCCC(=O)Nc1sc2c(c1-c1nc3ccccc3s1)CCN(C(C)C)C2`, the values for the 50% inhibitory concentration (IC50) in test [1] and in test [2] were 300 to 1000 nM and 1000 to 10000 nM, respectively.
In the case of `COCCNCCC(=O)Nc1sc2c(c1-c1nc3cc(-c4ccnn4C)ccc3s1)CCNC2`, the results for the IC50 in test [1] and in test [2] were 300 to 1000 nM and less than 300 nM, respectively.
For `O=C(C[C@@H]1CCCN1)Nc1sc2c(c1-c1nc3ccccc3s1)CCNC2`, the IC50 in test [1] is 1000 to 10000 nM; in test [2] it was less than 300 nM.
As for `COCCNCCC(=O)Nc1sc2c(c1-c1nc3cc(-c4cnccc4C)ccc3s1)CCNC2`, the values for the IC50 in test [1] and in test [2] were 1000 to 10000 nM and less than 300 nM, respectively.
Turning to `Cc1nn(C)cc1-c1ccc2sc(-c3c(NC(=O)CCNC(C)C)sc4c3CCNC4)nc2c1`, the IC50 was less than 300 nM in test [1] and 1000 to 10000 nM in test [2].
The matching figures for `COCCNCCC(=O)Nc1sc2c(c1-c1nc3cc(-c4cccc(S(C)(=O)=O)c4)ccc3s1)CCNC2`: 300 to 1000 nM and less than 300 nM.
The matching figures for `CC(C)NCCC(=O)Nc1sc2c(c1-c1nc3ccccc3s1)CC1CCC2N1` (stereo unspecified): 1000 to 10000 nM and less than 300 nM.
The matching figures for `CCC(C)N(CCC(=O)Nc1sc2c(c1-c1nc3ccccc3s1)CCNC2)C(C)=O` (stereo unspecified): 1000 to 10000 nM and 1000 to 10000 nM.
Regarding `CC(C)NCCC(=O)Nc1sc2c(c1-c1nc3cc(SC4CCCC4)ccc3s1)CCNC2`, the IC50 in test [1] is greater than 10000 nM; in test [2], less than 300 nM.
Take `O=C(C[C@H]1CCCN1)Nc1sc2c(c1-c1nc3ccccc3s1)CCNC2`: the figures for the IC50 in test [1] and in test [2] were 300 to 1000 nM and less than 300 nM, respectively.
As to `CC(C)N1CCc2c(sc(NC(=O)CCN3CCN(C)CC3)c2-c2nc3ccccc3s2)C1`, the IC50 in test [1] and in test [2] was 300 to 1000 nM each time.
For `COCCNCCC(=O)Nc1sc2c(c1-c1nc3ccc(-c4cccc(NS(C)(=O)=O)c4)cc3s1)CCNC2`, the IC50 in test [1] was 300 to 1000 nM; in test [2] it was less than 300 nM.
On the same counts, the results for `CC(C)NCCC(=O)Nc1sc2c(c1-c1nc3ccc(-c4cnn(C)c4)cc3s1)CCNC2` are less than 300 nM and less than 300 nM.
As to `CC(C)NCCC(=O)Nc1sc2c(c1-c1nc3cc(C4CCCCC4)ccc3s1)CCNC2`, the figures for the IC50 in test [1] and in test [2] were greater than 10000 nM and 300 to 1000 nM, respectively.
On the same counts, the results for `CCN(CC)CCNCCC(=O)Nc1sc2c(c1-c1nc3ccccc3s1)CCN(C(C)C)C2` are 300 to 1000 nM and 1000 to 10000 nM.
Turning to `O=C(CCNC1CC1)Nc1sc2c(c1-c1nc3ccccc3s1)CCNC2`, the IC50 was 300 to 1000 nM in test [1] and less than 300 nM in test [2].
As to `COCCNCCC(=O)Nc1sc2c(c1-c1nc3ccc(-c4cncc(N)c4)cc3s1)CCNC2`, the values for the IC50 in test [1] and in test [2] were 300 to 1000 nM and less than 300 nM, respectively.
The matching figures for `COCCNCCC(=O)Nc1sc2c(c1-c1nc3cc(-c4cncnc4)ccc3s1)CCNC2`: less than 300 nM and 300 to 1000 nM.
On to `COCCNCCC(=O)Nc1sc2c(c1-c1nc3cc(-c4cc(C)[nH]n4)ccc3s1)CCNC2`, for which the IC50 is 300 to 1000 nM in test [1] and less than 300 nM in test [2].
Turning to `Cc1cn(-c2ccc3sc(-c4c(NC(=O)CCNC(C)C)sc5c4CCNC5)nc3c2)cn1`, the IC50 in test [1] and in test [2] was less than 300 nM throughout.
On to `COCCNCCC(=O)Nc1sc2c(c1-c1nc3cc(-c4cncc(C)c4)ccc3s1)CCNC2`, for which the results for the IC50 in test [1] and in test [2] were 300 to 1000 nM and less than 300 nM, respectively.
In the case of `COCCNCCC(=O)Nc1sc2c(c1-c1nc3c(-n4ccnc4C)cccc3s1)CCNC2`, the IC50 is 300 to 1000 nM in test [1] and less than 300 nM in test [2].
The matching figures for `COCCNCCC(=O)Nc1sc2c(c1-c1nc3cc(OC4CCOCC4)ccc3s1)CCNC2`: 300 to 1000 nM and less than 300 nM.
The matching figures for `COCCNCCC(=O)Nc1sc2c(c1-c1nc3cc(-c4cccc(C#N)c4)ccc3s1)CCNC2`: 300 to 1000 nM and less than 300 nM.
On the same counts, the results for `CC(C)NCCC(=O)Nc1sc2c(c1-c1nc3cc(C4=CCN(S(C)(=O)=O)CC4)ccc3s1)CCNC2` are less than 300 nM and 300 to 1000 nM.
On to `CC(=O)Nc1sc2c(c1-c1nc3cc(-c4cnn(C)c4)ccc3s1)CCNC2`, for which the 50% inhibitory concentration (IC50) is 300 to 1000 nM in test [1] and less than 300 nM in test [2].
In the case of `CCOc1ncccc1-c1ccc2sc(-c3c(NC(=O)CCNCCOC)sc4c3CCNC4)nc2c1`, the values for the IC50 in test [1] and in test [2] were 1000 to 10000 nM and 300 to 1000 nM, respectively.
For `Cc1cc(-c2ccc3sc(-c4c(NC(=O)CCNC(C)C)sc5c4CCNC5)nc3c2)cc(C)n1`, the IC50 in test [1] was greater than 10000 nM; in test [2] it was less than 300 nM.
On the same counts, the results for `CC(C)NCCC(=O)Nc1sc2c(c1-c1nc3ccccc3o1)CCNC2` are 300 to 1000 nM and less than 300 nM.
On to `O=C(CCN1CCOCC1)Nc1sc2c(c1-c1nc3ccccc3s1)CCNC2`, for which the IC50 in test [1] fell in the range of 1000 to 10000 nM; in test [2], 300 to 1000 nM.
Regarding `COCCNCCC(=O)Nc1sc2c(c1-c1nc3ccc(-c4ccnc(NC(C)=O)c4)cc3s1)CCNC2`, the results for the IC50 in test [1] and in test [2] were 300 to 1000 nM and less than 300 nM, respectively.
`CC(C)NCCC(=O)Nc1sc2c(c1-c1nc3cc(S(=O)(=O)C4CCCC4)ccc3s1)CCNC2`: the half-inhibitory concentration (IC50) in test [1] is 300 to 1000 nM; in test [2], less than 300 nM.
Turning to `COCCNCCC(=O)Nc1sc2c(c1-c1nc3ccc(-c4cncc(F)c4)cc3s1)CCNC2`, the IC50 in test [1] is 300 to 1000 nM; in test [2] it was less than 300 nM.
As to `COCCNCCC(=O)Nc1sc2c(c1-c1nc3ccc(-c4cncc(C)c4)cc3s1)CCNC2`, the IC50 in test [1] was 1000 to 10000 nM; in test [2], less than 300 nM.
With `COCCNCCC(=O)Nc1sc2c(c1-c1nc3cc(-c4cncc(C(F)(F)F)c4)ccc3s1)CCNC2`, the IC50 is 300 to 1000 nM in test [1] and less than 300 nM in test [2].
The matching figures for `CC(C)NCCC(=O)Nc1sc2c(c1-c1nc3cc(Sc4ccccc4)ccc3s1)CCNC2`: greater than 10000 nM and 300 to 1000 nM.

For orientation: IC50 means the concentration at which inhibition is half-maximal.
